The target in assay [1] is T1, Calcium/calmodulin-dependent protein kinase type IV (Homo sapiens) (UniProt Q16566).
T1 sequence (whole entry): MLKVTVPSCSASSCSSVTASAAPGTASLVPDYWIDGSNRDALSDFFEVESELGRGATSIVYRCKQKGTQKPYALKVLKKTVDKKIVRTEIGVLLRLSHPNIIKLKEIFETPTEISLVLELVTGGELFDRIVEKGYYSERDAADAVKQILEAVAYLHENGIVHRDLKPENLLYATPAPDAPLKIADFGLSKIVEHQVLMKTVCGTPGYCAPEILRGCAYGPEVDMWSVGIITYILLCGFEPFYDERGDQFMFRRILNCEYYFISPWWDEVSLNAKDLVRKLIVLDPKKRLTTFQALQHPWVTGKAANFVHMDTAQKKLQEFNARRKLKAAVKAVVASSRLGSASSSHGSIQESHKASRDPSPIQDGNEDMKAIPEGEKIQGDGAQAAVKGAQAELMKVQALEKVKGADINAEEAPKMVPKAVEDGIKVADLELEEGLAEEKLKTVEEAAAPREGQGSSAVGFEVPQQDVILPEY
Nature of the assay: Selectivity interaction (Kinase panel (KiNativ target engagement assay in Jurkat cells)) EUB0001635a CAMK4. It is filed as cell-based. Conditions: Selectivity number of off-targets 0.0, Selectivity number of targets 233.0, Source Knowledge https://www.sciencedirect.com/science/article/pii/S2451945619300674?via%3Dihub, at 1 µM.

Assay [2] has as its target LIM domain kinase 2 (Homo sapiens) (UniProt P53671). As to the kind of experiment: Selectivity interaction (KinomeScan (DiscoverX)) EUB0000607a LIMK2. Particulars: at 10 µM.
Assay [3] concerns the target Mitogen-activated protein kinase kinase kinase 11 (Homo sapiens) (UniProt Q16584). As to the kind of experiment: Selectivity interaction (KinomeScan (DiscoverX)) EUB0000666a MAP3K11. Conditions: at 10 µM.
The target of assay [4] is Protein arginine N-methyltransferase 3 (Homo sapiens, UniProt O60678). As to the kind of experiment: Selectivity interaction (Scintillation proximity assays) EUB0000230b PRMT3. In general terms: Scintillation proximity formats need no separation of bound from free tracer.
Sequence of Protein arginine N-methyltransferase 3 (O60678 whole entry): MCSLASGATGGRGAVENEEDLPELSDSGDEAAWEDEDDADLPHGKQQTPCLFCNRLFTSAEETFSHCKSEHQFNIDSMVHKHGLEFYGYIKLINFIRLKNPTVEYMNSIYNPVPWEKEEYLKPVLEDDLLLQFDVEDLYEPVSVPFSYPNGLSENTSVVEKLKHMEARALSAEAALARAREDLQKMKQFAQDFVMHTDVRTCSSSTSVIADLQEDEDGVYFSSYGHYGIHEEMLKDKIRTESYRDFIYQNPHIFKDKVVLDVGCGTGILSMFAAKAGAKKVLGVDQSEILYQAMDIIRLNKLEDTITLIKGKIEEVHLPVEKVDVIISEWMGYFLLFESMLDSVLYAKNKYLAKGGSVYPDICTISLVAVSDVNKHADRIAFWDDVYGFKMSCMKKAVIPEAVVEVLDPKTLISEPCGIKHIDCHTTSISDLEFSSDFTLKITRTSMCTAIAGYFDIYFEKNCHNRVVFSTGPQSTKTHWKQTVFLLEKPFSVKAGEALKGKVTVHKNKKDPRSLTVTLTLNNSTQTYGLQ
The target of assay [5] is T2, cAMP-dependent protein kinase catalytic subunit PRKX (Homo sapiens) (UniProt P51817).
T2 sequence (whole entry): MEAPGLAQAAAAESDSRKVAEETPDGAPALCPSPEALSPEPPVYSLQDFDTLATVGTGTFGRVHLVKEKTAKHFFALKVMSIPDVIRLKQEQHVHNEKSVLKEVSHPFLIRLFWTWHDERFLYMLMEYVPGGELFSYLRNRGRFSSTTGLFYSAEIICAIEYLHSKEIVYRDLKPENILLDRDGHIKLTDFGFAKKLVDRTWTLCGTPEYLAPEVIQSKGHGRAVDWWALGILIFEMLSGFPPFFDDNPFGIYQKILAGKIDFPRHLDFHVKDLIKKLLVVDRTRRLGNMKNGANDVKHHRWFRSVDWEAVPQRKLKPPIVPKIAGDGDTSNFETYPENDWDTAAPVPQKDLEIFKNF
As to the kind of experiment: Selectivity interaction (KinomeScan (DiscoverX)) EUB0001619a PRKX. Particulars: at 1 µM.

The target of assay [6] is T3, Aurora kinase A (Homo sapiens) (UniProt O14965).
T3 sequence (whole entry): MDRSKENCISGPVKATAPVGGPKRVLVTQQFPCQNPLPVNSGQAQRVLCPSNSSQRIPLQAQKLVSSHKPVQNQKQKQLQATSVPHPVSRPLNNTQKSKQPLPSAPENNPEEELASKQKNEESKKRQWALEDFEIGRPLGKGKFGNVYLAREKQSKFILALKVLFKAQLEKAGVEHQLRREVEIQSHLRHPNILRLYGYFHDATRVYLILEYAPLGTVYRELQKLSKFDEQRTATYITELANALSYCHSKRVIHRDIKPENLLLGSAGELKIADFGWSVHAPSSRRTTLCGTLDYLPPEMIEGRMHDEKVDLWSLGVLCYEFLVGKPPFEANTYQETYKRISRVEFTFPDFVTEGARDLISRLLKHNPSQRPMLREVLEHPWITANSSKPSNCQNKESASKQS
Nature of the assay: Selectivity interaction (ActivX KiNativ screen (kinase selectivity in THP-1 cell lysates)) EUB0000639a STK6. In kind it is subcellular. Conditions: lysate, at 0.2 µM.

Assay [7] has as its target Protein kinase C eta type (Homo sapiens) (UniProt P24723). Nature of the assay: Selectivity interaction (Kinase panel (Invitrogen)) EUB0000639a PRKCH. Conditions: at 200 nM.
The target in assay [8] is Receptor-interacting serine/threonine-protein kinase 2 (Homo sapiens, UniProt O43353). As to the kind of experiment: Selectivity interaction (KinomeScan (DiscoverX)) EUB0000695a RIPK2. Conditions: at 100 nM.
Sequence of Receptor-interacting serine/threonine-protein kinase 2 (O43353 whole entry): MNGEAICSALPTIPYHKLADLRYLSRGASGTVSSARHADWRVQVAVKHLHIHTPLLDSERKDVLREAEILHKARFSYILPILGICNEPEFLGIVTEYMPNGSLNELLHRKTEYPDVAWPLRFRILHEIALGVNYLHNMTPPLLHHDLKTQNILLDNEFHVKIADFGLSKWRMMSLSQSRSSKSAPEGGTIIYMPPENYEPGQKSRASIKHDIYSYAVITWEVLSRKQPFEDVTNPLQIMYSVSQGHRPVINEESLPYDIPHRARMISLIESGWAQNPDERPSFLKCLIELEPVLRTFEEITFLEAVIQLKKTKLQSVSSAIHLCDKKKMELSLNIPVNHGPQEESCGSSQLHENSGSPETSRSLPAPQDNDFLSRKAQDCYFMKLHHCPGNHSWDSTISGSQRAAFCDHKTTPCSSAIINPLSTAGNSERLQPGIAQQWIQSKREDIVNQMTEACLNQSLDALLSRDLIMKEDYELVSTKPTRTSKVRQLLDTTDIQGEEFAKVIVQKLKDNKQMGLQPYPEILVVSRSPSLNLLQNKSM
Assay [9] deals with T4, Serine/threonine-protein kinase ICK (Homo sapiens) (UniProt Q9UPZ9).
T4 sequence (whole entry): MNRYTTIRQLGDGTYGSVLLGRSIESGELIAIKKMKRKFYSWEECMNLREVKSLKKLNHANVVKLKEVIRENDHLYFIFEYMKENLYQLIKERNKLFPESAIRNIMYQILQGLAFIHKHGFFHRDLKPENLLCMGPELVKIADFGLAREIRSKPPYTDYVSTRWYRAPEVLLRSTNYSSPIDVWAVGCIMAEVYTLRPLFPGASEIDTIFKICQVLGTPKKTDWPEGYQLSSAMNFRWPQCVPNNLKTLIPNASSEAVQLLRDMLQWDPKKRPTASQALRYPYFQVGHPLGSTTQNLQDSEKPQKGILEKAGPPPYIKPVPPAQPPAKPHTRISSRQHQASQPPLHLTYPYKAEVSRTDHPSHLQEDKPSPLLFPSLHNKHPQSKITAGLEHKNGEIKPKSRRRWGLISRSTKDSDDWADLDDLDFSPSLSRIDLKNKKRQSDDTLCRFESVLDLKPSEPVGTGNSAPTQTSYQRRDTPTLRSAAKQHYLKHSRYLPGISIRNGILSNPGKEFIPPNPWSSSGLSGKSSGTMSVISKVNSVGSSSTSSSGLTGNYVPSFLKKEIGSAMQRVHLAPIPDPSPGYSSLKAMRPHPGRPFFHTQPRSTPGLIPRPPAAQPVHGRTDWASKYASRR
Nature of the assay: Selectivity interaction (KinomeScan (DiscoverX)) EUB0000695a ICK. Conditions: at 100 nM.

The target in assay [10] is MAP/microtubule affinity-regulating kinase 3 (Homo sapiens) (UniProt P27448). As to the kind of experiment: Selectivity interaction (ProQinase) EUB0000171b MARK3.
Sequence of MAP/microtubule affinity-regulating kinase 3 (Homo sapiens) (P27448 whole entry, looked up): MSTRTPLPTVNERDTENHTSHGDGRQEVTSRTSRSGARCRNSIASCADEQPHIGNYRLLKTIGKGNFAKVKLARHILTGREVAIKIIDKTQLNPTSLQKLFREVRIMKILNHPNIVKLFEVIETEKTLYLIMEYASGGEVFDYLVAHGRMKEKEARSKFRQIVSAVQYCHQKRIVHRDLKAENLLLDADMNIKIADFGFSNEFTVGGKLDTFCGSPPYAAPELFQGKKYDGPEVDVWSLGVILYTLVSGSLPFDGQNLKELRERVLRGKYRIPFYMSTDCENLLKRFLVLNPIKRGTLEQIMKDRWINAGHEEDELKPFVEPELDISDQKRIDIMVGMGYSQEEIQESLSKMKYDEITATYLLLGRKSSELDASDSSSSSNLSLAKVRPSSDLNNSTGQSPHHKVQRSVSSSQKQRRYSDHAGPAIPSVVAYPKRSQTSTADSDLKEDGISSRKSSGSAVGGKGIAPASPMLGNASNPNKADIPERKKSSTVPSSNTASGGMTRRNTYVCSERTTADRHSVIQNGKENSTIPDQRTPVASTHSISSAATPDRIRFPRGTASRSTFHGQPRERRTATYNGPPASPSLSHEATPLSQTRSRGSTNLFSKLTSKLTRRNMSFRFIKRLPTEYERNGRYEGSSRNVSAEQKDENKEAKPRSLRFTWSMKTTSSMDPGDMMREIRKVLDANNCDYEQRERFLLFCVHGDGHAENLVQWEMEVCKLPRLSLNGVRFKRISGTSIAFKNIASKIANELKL
The target of assay [11] is Tyrosine-protein kinase FRK (Homo sapiens) (UniProt P42685). As to the kind of experiment: Selectivity interaction (KinomeScan (DiscoverX)) EUB0000092b FRK. Conditions: at 10 µM.
Sequence of Tyrosine-protein kinase FRK (Homo sapiens) (P42685 whole entry): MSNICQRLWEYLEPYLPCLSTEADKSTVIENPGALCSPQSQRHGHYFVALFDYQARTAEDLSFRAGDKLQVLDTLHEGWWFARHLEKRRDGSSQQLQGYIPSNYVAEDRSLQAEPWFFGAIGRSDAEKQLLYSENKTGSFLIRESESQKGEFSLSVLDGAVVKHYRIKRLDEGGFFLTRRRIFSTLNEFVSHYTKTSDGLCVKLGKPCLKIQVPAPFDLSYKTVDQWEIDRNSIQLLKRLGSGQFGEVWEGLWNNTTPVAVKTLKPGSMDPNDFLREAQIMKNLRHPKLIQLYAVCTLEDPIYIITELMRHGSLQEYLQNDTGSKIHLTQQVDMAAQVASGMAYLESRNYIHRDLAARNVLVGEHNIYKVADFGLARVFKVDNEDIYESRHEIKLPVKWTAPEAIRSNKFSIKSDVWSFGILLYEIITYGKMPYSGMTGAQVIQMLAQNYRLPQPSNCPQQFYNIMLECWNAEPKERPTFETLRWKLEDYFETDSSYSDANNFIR
In assay [12] the target is Tyrosine-protein kinase JAK2 (Homo sapiens, UniProt O60674). Nature of the assay: Selectivity interaction (KinomeScan (DiscoverX)) EUB0000092b JAK2. Conditions: at 10 µM.
Assay [13] can be described thus: Selectivity interaction (KinomeScan (DiscoverX)) EUB0000595a CDK2H. Conditions: at 10 µM.

From ChEMBL document CHEMBL5465560, “Selectivity Literature for EUbOPEN Chemogenomic Library” (2024) come the findings set out here.

A value given as a limit tells only on which side of the number the result lay.

In general, IC50 refers to the concentration needed to halve the response being measured. Lower therefore signals greater potency in that assay.

Sequence of Mitogen-activated protein kinase kinase kinase 11 (Homo sapiens) (Q16584 whole entry, looked up): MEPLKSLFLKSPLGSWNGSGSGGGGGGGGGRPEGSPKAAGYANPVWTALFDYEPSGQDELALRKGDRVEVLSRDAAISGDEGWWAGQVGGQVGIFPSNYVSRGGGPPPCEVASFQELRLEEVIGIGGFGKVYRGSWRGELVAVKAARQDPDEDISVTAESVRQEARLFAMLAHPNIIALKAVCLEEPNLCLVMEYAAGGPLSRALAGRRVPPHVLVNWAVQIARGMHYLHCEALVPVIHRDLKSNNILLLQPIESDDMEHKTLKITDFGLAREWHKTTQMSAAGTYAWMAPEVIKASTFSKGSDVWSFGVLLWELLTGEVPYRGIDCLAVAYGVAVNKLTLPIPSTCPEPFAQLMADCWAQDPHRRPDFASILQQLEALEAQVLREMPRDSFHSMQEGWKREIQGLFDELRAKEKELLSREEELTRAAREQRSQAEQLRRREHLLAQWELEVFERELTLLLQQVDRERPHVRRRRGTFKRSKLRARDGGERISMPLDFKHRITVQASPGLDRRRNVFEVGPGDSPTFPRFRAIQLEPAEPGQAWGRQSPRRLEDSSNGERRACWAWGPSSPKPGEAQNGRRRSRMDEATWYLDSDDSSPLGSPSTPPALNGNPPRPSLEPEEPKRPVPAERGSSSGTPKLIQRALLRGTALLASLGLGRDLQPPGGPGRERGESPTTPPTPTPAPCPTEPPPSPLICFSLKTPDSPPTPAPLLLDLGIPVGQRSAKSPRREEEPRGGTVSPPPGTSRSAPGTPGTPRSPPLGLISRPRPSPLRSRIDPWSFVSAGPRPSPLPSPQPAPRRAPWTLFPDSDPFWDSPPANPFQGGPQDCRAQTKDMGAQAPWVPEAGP
Sequence of LIM domain kinase 2 (Homo sapiens) (P53671 whole entry, looked up, the tested form may be a part): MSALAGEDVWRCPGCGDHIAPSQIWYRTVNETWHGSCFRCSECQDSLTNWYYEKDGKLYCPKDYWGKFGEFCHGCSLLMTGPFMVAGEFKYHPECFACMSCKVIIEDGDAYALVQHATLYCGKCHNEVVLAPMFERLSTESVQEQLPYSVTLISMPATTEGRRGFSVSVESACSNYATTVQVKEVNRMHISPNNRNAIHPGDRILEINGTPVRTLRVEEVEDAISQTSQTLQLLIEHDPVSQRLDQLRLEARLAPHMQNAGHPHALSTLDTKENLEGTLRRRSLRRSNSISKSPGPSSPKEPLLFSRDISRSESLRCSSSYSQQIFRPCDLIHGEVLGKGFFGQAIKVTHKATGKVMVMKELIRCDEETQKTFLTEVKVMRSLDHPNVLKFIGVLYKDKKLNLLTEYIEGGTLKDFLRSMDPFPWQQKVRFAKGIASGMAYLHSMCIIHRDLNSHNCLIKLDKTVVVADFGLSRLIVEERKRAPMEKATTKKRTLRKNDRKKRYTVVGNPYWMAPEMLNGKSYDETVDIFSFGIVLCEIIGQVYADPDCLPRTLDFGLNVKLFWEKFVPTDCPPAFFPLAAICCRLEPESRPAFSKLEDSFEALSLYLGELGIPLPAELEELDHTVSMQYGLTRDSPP
Sequence of Protein kinase C eta type (Homo sapiens) (P24723 whole entry): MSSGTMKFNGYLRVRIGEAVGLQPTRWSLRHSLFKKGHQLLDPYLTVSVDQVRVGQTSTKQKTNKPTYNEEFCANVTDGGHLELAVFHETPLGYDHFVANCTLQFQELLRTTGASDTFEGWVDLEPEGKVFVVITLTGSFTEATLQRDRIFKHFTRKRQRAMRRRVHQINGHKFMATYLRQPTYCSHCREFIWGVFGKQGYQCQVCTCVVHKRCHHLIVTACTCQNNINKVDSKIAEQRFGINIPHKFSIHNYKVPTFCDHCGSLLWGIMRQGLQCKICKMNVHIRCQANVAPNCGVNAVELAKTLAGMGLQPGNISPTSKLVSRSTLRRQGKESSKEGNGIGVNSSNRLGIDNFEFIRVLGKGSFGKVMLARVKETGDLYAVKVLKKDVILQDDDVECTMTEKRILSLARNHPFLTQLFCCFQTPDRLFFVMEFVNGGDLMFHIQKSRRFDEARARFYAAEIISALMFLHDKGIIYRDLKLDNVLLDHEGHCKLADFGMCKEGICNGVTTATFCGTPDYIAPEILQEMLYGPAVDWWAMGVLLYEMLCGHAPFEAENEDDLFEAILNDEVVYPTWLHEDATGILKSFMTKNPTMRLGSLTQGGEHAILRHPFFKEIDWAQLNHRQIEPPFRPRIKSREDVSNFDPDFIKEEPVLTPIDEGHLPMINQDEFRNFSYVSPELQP

For `C=CC(=O)Nc1ccc(C(=O)Nc2[nH]nc3c2CN(C(=O)N[C@H](CN(C)C)c2ccccc2)C3(C)C)cc1`, the % of engagement in [1] stood at 4.5%.

On to `CNC(=O)Nc1ccc(-c2nc(N3CC4CCC(C3)O4)c3cnn(C4CCC5(CC4)OCCO5)c3n2)cc1`, for which the % of control in assay [2] is 88%.

Regarding `O=C(NOC[C@H](O)CO)c1ccc(F)c(F)c1Nc1ccc(I)cc1F`, the % of control in [3] was 100%.

The molecule `CNCCN1CCC(c2cc(CN(C)C(=O)c3cccc(Oc4ccccc4)c3)ccn2)CC1` returned an IC50 in assay [4] above 10 µM.

The molecule `N#Cc1cccc(-c2c[nH]c3ncnc(N4CCOCC4)c23)c1` displayed a % of control in assay [5] of 100%.

Turning to `CC[C@@H]1[C@H](F)C(=O)N[C@@H]1COc1nccc2cc(C(N)=O)c(OC)cc12` [ZIMLOVISERTIB], the % of inhibition came out at 20.9% in assay [6] and 7.47% in [7].

On to `Cc1cc(F)c(C(=O)Nc2cccc(-c3nncn3C(C)C)n2)cc1-n1cnc(C2CC2)c1`, for which the % of control in [8] and in assay [9] was 100% throughout.

Take `C=CC(=O)Nc1cccc(C(=O)Nc2ccc(Nc3cc(-c4[nH]c(SC)nc4C)ccn3)cc2)c1`: the figures for the % of control in assay [10] (at 1 µM) and in [10] (at 5 µM) were 82% and 92%, respectively.

Consider `CCC(=O)N1CCN(c2ccc(-n3c(=O)ccc4cnc5ccc(-c6cnc7ccccc7c6)cc5c43)cc2C(F)(F)F)CC1`, for which the % of control was 60% in [11] and 65% in assay [12].

The molecule `COCC(=O)NC/C=C/c1ccc2ncnc(Nc3ccc(Oc4ccc(C)nc4)c(C)c3)c2c1` [CP-724714] had a % of control in assay [13] of 100%.
